Results reported in US10052311B2, “PPAR compounds for use in the treatment of fibrotic diseases” (INVENTIVA, priority 2014, dated 2018).
pEC50, pIC50: −log10 of the molar value. Values joined by “and” are separate entries in the source; they are usually repeats but may differ in a detail not shown here. Identical values can stand only once.

Tests used:
CCl4-exposed mice = assay: Carbon tetrachloride (CCl4)-induced liver fibrosis in mice; type: in vivo, mouse; conditions: vs vehicle
Experimental: Mice were allowed to habituate for at least 5 days prior to experimentation.
Sunflower oil (twice a week for 3 weeks, ip)/vehicle (once a day for 22 days po), n=7, • 2. […] CCl4 (3.5 mL/kg, twice a week for 3 weeks, ip)/vehicle (once a day for 22 days po), n=8 • 5.
Two days a week for 3 weeks, mice were intraperitoneally administered in the morning with either 100 μL of CCl4 (3.5 mL kg in sunflower oil (v/v, 1/11)) or 100 μL of sunflower oil.
Measured Parameters Collagen
mRNA extraction was performed on small frozen liver samples (50-100 mg).

[1] = tested on: primary human lung fibroblasts; assay: PDGF-induced proliferation, EdU incorporation assay; type: cell-based; conditions: Fibroblast, 24 h, NC: not converged
Experimental: (§1) The ability of compound A to inhibit PDGF-induced lung and dermal fibroblasts proliferation was determined by performing EdU (5-ethynyl-2′-deoxyuridine) incorporation assays. These assays were carried out using primary human lung or skin fibroblasts (Promocell). The cells were plated in 96-well plates in full growth medium for 24 h, followed by 24 h starvation in serum-free medium. The medium was then replaced by fresh medium containing PDGF and compound A to be tested (at concentrations ranging from 10^−4 M to 4.5 10^−8 M) for another 24 h. EdU was added to the cells for the last 16 h of the compound treatment. The culture medium was then removed, the cells were fixed with formaldehyde and the EdU incorporated in the DNA of diving cells was quantified using fluorescent Click-it assay according to the manufacturer's instructions (Invitrogen). […] Results were expressed as % of EdU-positive cells out of the total cell number. The results present the mean of biological triplicates. Dose-effect curves and IC50 values were calculated using the GraphPad Prism software.

[2] = tested on: primary human dermal fibroblasts; assay: as above; type: cell-based; conditions: Fibroblast, 24 h, NC: not converged
Experimental: as §1

mouse PPARδ = biological target: T1, mouse PPARδ (Mus musculus, UniProt P35396); assay: Transient transactivation assay, Cos-7 cells, chimeric PPARδ-Gal4, luciferase reporter; type: cell-based; conditions: Gal4 chimera, mean of 5 experiments, estimated (plateau not reached)
T1 sequence (P35396 210-440 limits assumed): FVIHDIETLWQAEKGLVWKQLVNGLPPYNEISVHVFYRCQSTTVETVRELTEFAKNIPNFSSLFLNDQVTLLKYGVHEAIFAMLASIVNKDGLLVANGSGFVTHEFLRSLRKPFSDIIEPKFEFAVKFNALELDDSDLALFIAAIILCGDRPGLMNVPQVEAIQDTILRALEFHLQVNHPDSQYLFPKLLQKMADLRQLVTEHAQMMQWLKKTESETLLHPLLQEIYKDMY
Experimental: (§2) Transfections were performed by a chemical agent (Jet PEI).

human PPARδ = biological target: T2, human PPARδ (Homo sapiens, UniProt Q03181); assay: as above; type: cell-based; conditions: Gal4 chimera, mean of 6 experiments
T2 sequence (Q03181 211-441 limits assumed): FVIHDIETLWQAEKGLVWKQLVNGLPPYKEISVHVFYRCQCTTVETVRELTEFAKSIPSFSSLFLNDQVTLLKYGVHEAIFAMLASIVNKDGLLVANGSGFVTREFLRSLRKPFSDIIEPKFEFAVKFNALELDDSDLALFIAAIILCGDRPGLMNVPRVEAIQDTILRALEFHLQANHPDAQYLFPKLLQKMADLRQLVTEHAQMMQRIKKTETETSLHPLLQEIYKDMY
Experimental: as §2

[3] = tested on: primary human lung fibroblasts; assay: TGFβ-induced fibroblasts to myofibroblasts transition (FMT), α-SMA immunocytochemistry; type: cell-based; conditions: Fibroblast, α-SMA-positive cells, 48 h, NC: not converged
Experimental: (§3) The ability of compound A to inhibit TGFβ-induced lung and dermal fibroblasts to myofibroblasts transition (FMT) was determined by performing immunocytochemistry assays for the myofibroblast marker, α-smooth muscle actin (α-SMA). These assays were carried out using primary human lung or skin fibroblasts (Promocell). The cells were plated in 96-well plates in full growth medium for 24 h, followed by 24 h starvation in serum-free medium. The medium was then replaced by fresh medium containing TGFβ and compound A to be tested (at concentrations ranging from 10^−4 M to 4.5 10^−8 M) for another 48 h. The culture medium was then removed, the cells were fixed with formaldehyde and stained with a primary mouse α-SMA antibody (Sigma) and secondary fluorescence-labelled goat-anti-mouse antibody (Invitrogen). α-SMA expression was quantified using Meta Xpress software. […] Results were expressed as % of α-SMA-positive cells out of the total cell number. The data was normalised to the TGFβ treatment alone, which was taken as 100%. The results present the mean of biological triplicates. Dose-effect curves and IC50 values were calculated using the GraphPad Prism software.

[4] = tested on: primary human dermal fibroblasts; assay: as above; type: cell-based; conditions: Fibroblast, α-SMA-positive cells, 48 h, NC: not converged
Experimental: as §3

bleomycin-exposed mice = assay: Bleomycin-induced skin fibrosis in mice; type: in vivo, mouse; conditions: vs vehicle
Experimental: The experiments were carried out on 6-week-old male C56BL/6 mice (Janvier, Le Genest-Saint-Isle, France).
0.9% NaCl was used as control (100 μL subcutaneous injections).
On day 21, mice were sacrificed by cervical dislocation, and skin samples were taken and processed for analysis.
Lesional skin areas were excised, fixed in 4% formalin and embedded in paraffin. Five μm thick sections were stained with haematoxylin and eosin. The dermal thickness was analyzed at 100-fold magnification by measuring the distance between the epidermal-dermal junction and the dermal-subcutaneous fat junction at four sites from lesional skin of each mouse. Two independent examiners performed the evaluation before a consensus in case of more of 10% of variability of the measures.
The collagen content in lesional skin samples was explored by hydroxyproline assay. After digestion of punch biopsies (ø3 mm) in 6M HCl for three hours at 120° C., the pH of the samples was adjusted to 7 with 6M NaOH. Afterwards, samples were mixed with 0.06 M chloramine T and incubated for 20 min at room temperature. […] The absorbance was determined at 557 nm with a Spectra MAX 190 microplate spectrophotometer (Molecular Devices, Sunnyvale, Calif., USA).
Total soluble collagen in cell culture supernatants was quantified using a Sircol collagen assay (Biocolor). Briefly, cell culture supernatant was mixed with sirius red dye for 30 minutes at room temperature. After centrifugation, the pellet was dissolved in alkali reagent. Measurement was performed using a SpectraMax 190 microplate spectrophotometer (Molecular Devices) at a wavelength of 540 nm.
Data were expressed as mean±standard error of the mean. The Student t-test was used for statistical analyses. A p value of less than 0.05 was considered as a statistically significant result.

O=C(O)CCCc1cc2cc(Cl)ccc2n1S(=O)(=O)c1ccc2ncsc2c1 [compound A, 5-Chloro-1-[(6-benzothiazolyl)sulfonyl]-1H-indole-2-butanoic acid]
Col1a expression (liver) (CCl4-exposed mice; 30 mg/kg/day po 22 days): significantly inhibited the expression of Col1a | TGFβ-1 expression (liver) (CCl4-exposed mice; 30 mg/kg/day po 22 days): significantly inhibited the expression of TGFβ-1 | decrease of collagen levels (hepatic fibrosis) (CCl4-exposed mice; 30 mg/kg/day po 22 days): 80% | fibronectin expression (liver) (CCl4-exposed mice; 30 mg/kg/day po 22 days): significantly inhibited the expression of fibronectin | plasma triglycerides (CCl4-exposed mice; 30 mg/kg/day po 22 days): significantly reduced plasma triglycerides | Col1a expression (liver) (CCl4-exposed mice; 100 mg/kg/day po 22 days): significantly inhibited the expression of Col1a | MCP-1 expression (liver) (CCl4-exposed mice; 100 mg/kg/day po 22 days): significantly inhibited the expression of MCP-1 | TGFβ-1 expression (liver) (CCl4-exposed mice; 100 mg/kg/day po 22 days): significantly inhibited the expression of TGFβ-1 | fibronectin expression (liver) (CCl4-exposed mice; 100 mg/kg/day po 22 days): significantly inhibited the expression of fibronectin | plasma triglycerides (CCl4-exposed mice; 100 mg/kg/day po 22 days): significantly reduced plasma triglycerides | α-SMA expression (liver) (CCl4-exposed mice; 100 mg/kg/day po 22 days): inhibited the expression of α-SMA compared to vehicle without reaching significance | decrease of collagen levels (hepatic fibrosis) (CCl4-exposed mice; 100 mg/kg/day po 22 days, 100 mg/kg/day): 89% and 90% | pIC50 [1]: 4.96 | pIC50 [2]: 4.94 | pEC50 (mouse PPARδ): 5.70 | pEC50 (human PPARδ): 6.28 | pIC50 [3]: 4.97 | pIC50 [4]: ~4.95 | collagen content (skin) (bleomycin-exposed mice; 30 mg/kg po 21 days): significantly reduced the collagen content | dermal thickness (bleomycin-exposed mice; 30 mg/kg po 21 days): significantly reduced dermal thickness | hydroxyproline content in lesioned skin (bleomycin-exposed mice; 30 mg/kg po 21 days): significantly lower | collagen content (skin) (bleomycin-exposed mice; 100 mg/kg po 21 days): significantly reduced the collagen content | dermal thickness (bleomycin-exposed mice; 100 mg/kg po 21 days): more significantly reduced dermal thickness | hydroxyproline content in lesioned skin (bleomycin-exposed mice; 100 mg/kg po 21 days): significantly lower
